Measurements reported in patent US20230390251A1, “METHODS OF TREATING RIBONUCLEOTIDE REDUCTASE-RELATED DISEASES WITH A RIBONUCLEOTIDE REDUCTASE INHIBITOR” (TAIHO PHARMACEUTICAL CO., LTD., priority 2020, published 2023).

Tests used:
[1] = test system: Human acute myelocytic leukemia (AML) cell line MV-4-11 cells; experiment: Anti-tumor effect (relative tumor volume) in nude mice implanted with MV-4-11 cells; format: in vivo; settings: for effect of reducing tumor volume (RTV) compared to the Control Group: Day 15
Protocol: Anti-tumor Effect and body weight change in QOD Dosing Regimen Human acute myelocytic leukemia (AML) cell line MV-4-11 cells (American Type Culture Collection CRL-9591™) were implanted in the right thorax of male nude mice (CLEA Japan, Inc.). After implantation of the tumor, the major axis (mm) and minor axis (mm) of the tumor were measured, and tumor volume (TV) was calculated for each mouse. Then, the mice were assigned to the following groups, Control group (◯), Continuous Dosing Group (●: 100 mg/kg/day; ⋄: 150 mg/kg/day) and QOD Dosing Group (▴: 200 mg/kg/day; ♦: 300 mg/kg/day), so that the average TV of each group was equivalent. The day in which the grouping (n=5) was conducted was taken as Day 0.
5-chloro-2-(N-((1S,2R)-2-(6-fluoro-2,3-dimethylphenyl)-1-(5-oxo-4,5-dihydro-1,3,4-oxadiazol-2-yl)propyl)sulfamoyl)benzamide (Compound A) was suspended in 5 mg/mL hypromellose solution to provide appropriate test samples for 100 mg/kg, 150 mg/kg. 200 mg/kg, and 300 mg/kg dosing regimen. Animals of the Control group were not treated.
To mice in the Continuous Dosing Group, 100 mg/kg/day or 150 mg/kg/day of Compound A was orally administered once daily from Day 1 to Day 14. The total dosage for mice in the Continuous Dosing Group administered 100 mg/kg/day (Group C-1) was 1400 mg/kg, and the total dosage for mice in the Continuous Dosing Group administered 150 mg/kg/day (Group C-2) was 2100 mg/kg.
To mice in the QOD Dosing Group, 200 mg/kg/day or 300 mg/kg/day of Compound A was orally administered once every other day for two weeks (Days 1, 3, 5, 7, 9, 11 and 13). The total dosage for mice in the QOD Dosing Group administered 200 mg/kg/day (Group QOD-1) was 1400 mg/kg, and the total dosage for mice in the QOD Dosing Group administered 300 mg/kg/day (Group QOD-2) was 2100 mg/kg.
On Days 4, 8, 11 and 15, using the following formula: TV (mm^3)=(major axis×minor axis^2)/2, relative tumor volume (RTV) was calculated as an index of anti-tumor effect during the dosing period for each group (FIG. 1).
Similar to Example 1, anti-tumor effect and body weight change were studied in mice harboring MV-4-11 cells among the following five groups: Control group (◯), Continuous Dosing Group (●: 100 mg/kg/day; ⋄: 150 mg/kg/day) and QW Dosing Group (▪: 700 mg/kg/day; x: 1050 mg/kg/day).
To mice in the QW Dosing Group, 700 mg/kg/day or 1050 mg/kg/day of Compound A was orally administered once per week for two weeks (Days 1 and 8). The total dosage for mice in the QW Dosing Group administered 700 mg/kg/day (Group QW-1) was 1400 mg/kg, and the total dosage for mice in the QW Dosing Group administered 1050 mg/kg/day (Group QW-2) was 2100 mg/kg.
(§1) Similar to Example 1, anti-tumor effect and body weight change were studied in mice harboring MV-4-11 cells among the following five groups: Control group (◯), Continuous Dosing Group (●: 100 mg/kg/day; ⋄: 150 mg/kg/day) and 3QW Dosing Group 1 (▴: 233 mg/kg/day; ♦: 350 mg/kg/day).
To mice in the 3QW Dosing Group 1, 233 mg/kg/day or 350 mg/kg/day of Compound A was orally administered three days consecutively per week for two weeks (Days 1-3 and 8-10). The total dosage for mice in the 3QW Dosing Group 1 administered 233 mg/kg/day (Group 3QW1-1) was 1400 mg/kg, and the total dosage for mice in the 3QW Dosing Group 1 administered 350 mg/kg/day (Group 3QW1-2) was 2100 mg/kg.
as §1, with “Anti-tumor Effect and body weight change in 3QW Dosing Regimen 2 Similar” for “Similar”, “group (0),” for “group (◯),”, “Group 2” for “Group 1”
To mice in the 3QW Dosing Group 2, 233 mg/kg/day or 350 mg/kg/day of Compound A was orally administered every other day three times per week for two weeks (Days 1, 3, 5, 8, 10 and 12). […]

A673 cells = experiment: Cell proliferation assay in A673 cells treated with siRNA against SLFN11; format: cell-based; settings: A673 Ewing sarcoma cells, siSLFN11 vs siControl, 3 days of exposure
Protocol: (§2) A673 cells, NCI-H460 cells and CFPAC-1 cells were transfected with 1 nM siRNAs for 24 h using Lipofectaminet®RNAiMAX Reagent (Thermo Fisher Scientific Inc.) and then re-seeded onto a 96-well plate for cell proliferation assay and caspase induction assay and onto dishes for immunoblotting analysis. siRNAs were obtained from Thermo Fisher Scientific Inc. as follows: Silencer® Select Negative Control #1 siRNA (#4390843 used as siControl), SLFN11 Silencer® Select Pre-designed siRNA (#s40703 used as siSLFN11-1, #s40704 as siSLFN11-2, and #s40702 as siSLFN11-3).
Cell proliferation assay was performed in accordance with conventional methods, available in Hasako, et al., ibid. Briefly, cells treated with siRNAs for 24 h were plated onto 96 well plate and incubated for 24 h, followed by 3 days of exposure to the compound A. After compound exposure, viable cells were detected by using the CellTiter-Glo luminescent cell viability assay (Promega).

NCI-H460 cells = experiment: Caspase-Glo 3/7 caspase induction assay in NCI-H460 cells treated with siRNA against SLFN11; format: cell-based; settings: 10 micro mol/L, 24 h; NCI-H460 cells transfected with siRNA against SLFN11
Protocol: as §2
Caspase induction assay was performed in accordance with conventional methods, available in Hasako., et al., ibid. Briefly, the cells with siRNAs for 24 h were seeded onto 96 well plate, incubated for 24 h, and then treated with Compound A for 24 h. Caspase induction was detected by using the Caspase-Glo 3/7 assay (Promega).

Cc1ccc(F)c([C@@H](C)[C@H](NS(=O)(=O)c2ccc(Cl)cc2C(N)=O)c2n[nH]c(=O)o2)c1C [Compound A, 5-chloro-2-(N-((1S,2R)-2-(6-fluoro-2,3-dimethylphenyl)-1-(5-oxo-4,5-dihydro-1,3,4-oxadiazol-2-yl)propyl)sulfamoyl)benzamide]
effect of reducing tumor volume, Group 3QW1-2 compared with Group C-2 ([1]; 3QW (consecutive) 350 mg/kg/day vs continuous 150 mg/kg/day, total dosage 2100 mg/kg, not statistically significant): similar
effect of reducing tumor volume, Group 3QW2-1 compared with Group C-1 ([1]; 3QW (every other day) 233 mg/kg/day vs continuous 100 mg/kg/day, total dosage 1400 mg/kg, t-test P<0.05): higher than Group C-1
effect of reducing tumor volume, Group 3QW2-2 compared with Group C-2 ([1]; 3QW (every other day) 350 mg/kg/day vs continuous 150 mg/kg/day, total dosage 2100 mg/kg, not statistically significant): similar
effect of reducing tumor volume (RTV) compared to the Control Group ([1]; 3QW Dosing Group 1, 233 or 350 mg/kg/day orally Days 1-3 and 8-10): showed the effect of reducing tumor volume compared to the Control Group
effect of reducing tumor volume (RTV) compared to the Control Group ([1]; 3QW Dosing Group 2, 233 or 350 mg/kg/day orally Days 1, 3, 5, 8, 10 and 12): showed the effect of reducing tumor volume compared to the Control Group
effect of reducing tumor volume, Group 5QW2-2 compared with Group C-2 ([1]; 5QW (2 on/1 off/3 on/1 off) 210 mg/kg/day vs continuous 150 mg/kg/day, total dosage 2100 mg/kg, t-test p<0.05): higher than Group C-2 with a statistically significant difference
effect of reducing tumor volume, Group 5QW1-2 compared with Group C-2 ([1]; 5QW (consecutive) 210 mg/kg/day vs continuous 150 mg/kg/day, total dosage 2100 mg/kg, not statistically significant): similar
effect of reducing tumor volume (RTV) compared to the Control Group ([1]; 5QW Dosing Group 1, 140 or 210 mg/kg/day orally Days 1-5 and 8-12): showed the effect of reducing tumor volume compared to the Control Group
effect of reducing tumor volume (RTV) compared to the Control Group ([1]; 5QW Dosing Group 2, 140 or 210 mg/kg/day orally Days 1-2, 4-6, 8-9 and 11-13): showed the effect of reducing tumor volume compared to the Control Group
effect of reducing tumor volume (RTV) compared to the Control Group ([1]; Continuous Dosing Group, 100 or 150 mg/kg/day orally once daily Day 1 to Day 14): showed the effect of reducing tumor volume compared to the Control Group
effect of reducing tumor volume, Group QOD-1 compared with Group C-1 ([1]; QOD 200 mg/kg/day vs continuous 100 mg/kg/day, total dosage 1400 mg/kg, t-test p<0.05): higher than Group C-1
effect of reducing tumor volume, Group QOD-2 compared with Group C-2 ([1]; QOD 300 mg/kg/day vs continuous 150 mg/kg/day, total dosage 2100 mg/kg, not statistically significant): similar
effect of reducing tumor volume (RTV) compared to the Control Group ([1]; QOD Dosing Group, 200 or 300 mg/kg/day orally Days 1, 3, 5, 7, 9, 11 and 13): showed the effect of reducing tumor volume compared to the Control Group
effect of reducing tumor volume, Group QW-2 compared with Group C-2 ([1]; QW 1050 mg/kg/day vs continuous 150 mg/kg/day, total dosage 2100 mg/kg, not statistically significant): similar
effect of reducing tumor volume (RTV) compared to the Control Group ([1]; QW Dosing Group, 700 or 1050 mg/kg/day orally Days 1 and 8): showed the effect of reducing tumor volume compared to the Control Group
effect of SLFN11 knockdown with siRNA on the cytotoxic effect (A673 cells): SLFN11 knockdown significantly suppressed the cytotoxic effect
compound-induced caspase-3/7 activation after SLFN11 knockdown (NCI-H460 cells): suppression
